Data reported in ChEMBL document CHEMBL5724806, “Unraveling interindividual differences and functional consequences of gut microbial metabolism of immunosuppressants” (2024).

How the values were obtained:
Assay type in all cases: ADME
[1] = The drug is tested on Lactobacillus fermentum strain: DSM20052 for biotransformation under anaerobic condition. The drug concentrations were measured over 6 timepoints collected between 0 and 12 hours of incubation by liquid-chromatography-coupled mass spectrometry (LC–MS); parameters: dose 5 uM, timepoint 0, 1.5, 3, 6, 9, 12 hours; details: limosilactobacillus fermentum, 5 µM
[2] = The drug is tested on Lactobacillus fermentum strain: DSM20052 for biotransformation under microaerobic condition. The drug concentrations were measured over 6 timepoints collected between 0 and 12 hours of incubation by liquid-chromatography-coupled mass spectrometry (LC–MS); parameters: dose 5 uM, timepoint 0, 1.5, 3, 6, 9, 12 hours; details: limosilactobacillus fermentum, 5 µM
[3] = The drug is tested on the gut metagenome community of A-02 with ENA study accession number: PRJEB31790 for biotransformation under microaerobic condition. The drug concentrations were measured over 7 timepoints collected between 0 and 12 hours of incubation by liquid-chromatography-coupled mass spectrometry (LC–MS); parameters: dose 5 uM, timepoint 0, 0.75, 1.5, 3, 6, 9, 12 hours; details: 5 µM
[4] = The drug is tested on Lactobacillus reuteri strain: DSM20016 for biotransformation under anaerobic condition. The drug concentrations were measured over 6 timepoints collected between 0 and 12 hours of incubation by liquid-chromatography-coupled mass spectrometry (LC–MS); parameters: dose 5 uM, timepoint 0, 1.5, 3, 6, 9, 12 hours; details: limosilactobacillus reuteri, 5 µM
[5] = The drug is tested on Escherichia coli strain: DSM27469 for biotransformation under microaerobic condition. The drug concentrations were measured over 6 timepoints collected between 0 and 12 hours of incubation by liquid-chromatography-coupled mass spectrometry (LC–MS); parameters: dose 5 uM, timepoint 0, 1.5, 3, 6, 9, 12 hours; details: 5 µM
[6] = The drug is tested on the gut metagenome community of A-05 with ENA study accession number: PRJEB31790 for biotransformation under anaerobic condition. The drug concentrations were measured over 7 timepoints collected between 0 and 12 hours of incubation by liquid-chromatography-coupled mass spectrometry (LC–MS); parameters: dose 5 uM, timepoint 0, 0.75, 1.5, 3, 6, 9, 12 hours; details: 5 µM
[7] = The drug is tested on the gut metagenome community of A-07 with ENA study accession number: PRJEB31790 for biotransformation under microaerobic condition. The drug concentrations were measured over 7 timepoints collected between 0 and 12 hours of incubation by liquid-chromatography-coupled mass spectrometry (LC–MS); parameters: dose 5 uM, timepoint 0, 0.75, 1.5, 3, 6, 9, 12 hours; details: 5 µM
[8] = The drug is tested on the gut metagenome community of P-04 with ENA study accession number: PRJEB31790 for biotransformation under anaerobic condition. The drug concentrations were measured over 7 timepoints collected between 0 and 12 hours of incubation by liquid-chromatography-coupled mass spectrometry (LC–MS); parameters: dose 5 uM, timepoint 0, 0.75, 1.5, 3, 6, 9, 12 hours; details: 5 µM
[9] = The drug is tested on Capnocytophaga ochracea strain: DSM7271 for biotransformation under microaerobic condition. The drug concentrations were measured over 6 timepoints collected between 0 and 12 hours of incubation by liquid-chromatography-coupled mass spectrometry (LC–MS); parameters: dose 5 uM, timepoint 0, 1.5, 3, 6, 9, 12 hours; details: 5 µM
[10] = The drug is tested on the gut metagenome community of P-02 with ENA study accession number: PRJEB31790 for biotransformation under microaerobic condition. The drug concentrations were measured over 7 timepoints collected between 0 and 12 hours of incubation by liquid-chromatography-coupled mass spectrometry (LC–MS); parameters: dose 5 uM, timepoint 0, 0.75, 1.5, 3, 6, 9, 12 hours; details: 5 µM
[11] = The drug is tested on Bifidobacterium adolescentis strain: DSM20083 for biotransformation under anaerobic condition. The drug concentrations were measured over 6 timepoints collected between 0 and 12 hours of incubation by liquid-chromatography-coupled mass spectrometry (LC–MS); parameters: dose 5 uM, timepoint 0, 1.5, 3, 6, 9, 12 hours; details: 5 µM
[12] = The drug is tested on Gemella haemolysans strain: DSM107751 for biotransformation under microaerobic condition. The drug concentrations were measured over 6 timepoints collected between 0 and 12 hours of incubation by liquid-chromatography-coupled mass spectrometry (LC–MS); parameters: dose 5 uM, timepoint 0, 1.5, 3, 6, 9, 12 hours; details: 5 µM
[13] = The drug is tested on the gut metagenome community of P-02 with ENA study accession number: PRJEB31790 for biotransformation under anaerobic condition. The drug concentrations were measured over 7 timepoints collected between 0 and 12 hours of incubation by liquid-chromatography-coupled mass spectrometry (LC–MS); parameters: dose 5 uM, timepoint 0, 0.75, 1.5, 3, 6, 9, 12 hours; details: 5 µM
[14] = The drug is tested on Enterococcus faecalis strain: ATCC29212 for biotransformation under microaerobic condition. The drug concentrations were measured over 6 timepoints collected between 0 and 12 hours of incubation by liquid-chromatography-coupled mass spectrometry (LC–MS); parameters: dose 5 uM, timepoint 0, 1.5, 3, 6, 9, 12 hours; details: 5 µM
[15] = The drug is tested on Eubacterium eligens strain: DSM3376 for biotransformation under anaerobic condition. The drug concentrations were measured over 6 timepoints collected between 0 and 12 hours of incubation by liquid-chromatography-coupled mass spectrometry (LC–MS); parameters: dose 5 uM, timepoint 0, 1.5, 3, 6, 9, 12 hours; details: lachnospira eligens, 5 µM
[16] = The drug is tested on the gut metagenome community of A-09 with ENA study accession number: PRJEB31790 for biotransformation under microaerobic condition. The drug concentrations were measured over 7 timepoints collected between 0 and 12 hours of incubation by liquid-chromatography-coupled mass spectrometry (LC–MS); parameters: dose 5 uM, timepoint 0, 0.75, 1.5, 3, 6, 9, 12 hours; details: 5 µM
[17] = The drug is tested on Enterococcus faecalis strain: ATCC29212 for biotransformation under anaerobic condition. The drug concentrations were measured over 6 timepoints collected between 0 and 12 hours of incubation by liquid-chromatography-coupled mass spectrometry (LC–MS); parameters: dose 5 uM, timepoint 0, 1.5, 3, 6, 9, 12 hours; details: 5 µM
[18] = The drug is tested on Coprococcus comes strain: ATCC27758 for biotransformation under anaerobic condition. The drug concentrations were measured over 6 timepoints collected between 0 and 12 hours of incubation by liquid-chromatography-coupled mass spectrometry (LC–MS); parameters: dose 5 uM, timepoint 0, 1.5, 3, 6, 9, 12 hours; details: 5 µM
[19] = The drug is tested on Alloscardovia omnicolens strain: DSM21503 for biotransformation under microaerobic condition. The drug concentrations were measured over 6 timepoints collected between 0 and 12 hours of incubation by liquid-chromatography-coupled mass spectrometry (LC–MS); parameters: dose 5 uM, timepoint 0, 1.5, 3, 6, 9, 12 hours; details: 5 µM
[20] = The drug is tested on the gut metagenome community of A-06 with ENA study accession number: PRJEB31790 for biotransformation under microaerobic condition. The drug concentrations were measured over 7 timepoints collected between 0 and 12 hours of incubation by liquid-chromatography-coupled mass spectrometry (LC–MS); parameters: dose 5 uM, timepoint 0, 0.75, 1.5, 3, 6, 9, 12 hours; details: 5 µM
[21] = The drug is tested on the gut metagenome community of T-01 with ENA study accession number: PRJEB31790 for biotransformation under microaerobic condition. The drug concentrations were measured over 7 timepoints collected between 0 and 12 hours of incubation by liquid-chromatography-coupled mass spectrometry (LC–MS); parameters: dose 5 uM, timepoint 0, 0.75, 1.5, 3, 6, 9, 12 hours; details: 5 µM
[22] = The drug is tested on Bacteroides fragilis strain: DSM2151 for biotransformation under anaerobic condition. The drug concentrations were measured over 6 timepoints collected between 0 and 12 hours of incubation by liquid-chromatography-coupled mass spectrometry (LC–MS); parameters: dose 5 uM, timepoint 0, 1.5, 3, 6, 9, 12 hours; details: 5 µM
[23] = The drug is tested on the gut metagenome community of T-03 with ENA study accession number: PRJEB31790 for biotransformation under microaerobic condition. The drug concentrations were measured over 7 timepoints collected between 0 and 12 hours of incubation by liquid-chromatography-coupled mass spectrometry (LC–MS); parameters: dose 5 uM, timepoint 0, 0.75, 1.5, 3, 6, 9, 12 hours; details: 5 µM
[24] = The drug is tested on the gut metagenome community of A-08 with ENA study accession number: PRJEB31790 for biotransformation under anaerobic condition. The drug concentrations were measured over 7 timepoints collected between 0 and 12 hours of incubation by liquid-chromatography-coupled mass spectrometry (LC–MS); parameters: dose 5 uM, timepoint 0, 0.75, 1.5, 3, 6, 9, 12 hours; details: 5 µM
[25] = The drug is tested on Gemella morbillorum strain: DSM20572 for biotransformation under anaerobic condition. The drug concentrations were measured over 6 timepoints collected between 0 and 12 hours of incubation by liquid-chromatography-coupled mass spectrometry (LC–MS); parameters: dose 5 uM, timepoint 0, 1.5, 3, 6, 9, 12 hours; details: 5 µM

Row | Compound | Bacterial Biotransformation [1] | Bacterial Biotransformation [2] | Bacterial Biotransformation [3] | Bacterial Biotransformation [4] | Bacterial Biotransformation [5] | Bacterial Biotransformation [6] | Bacterial Biotransformation [7] | Bacterial Biotransformation [8] | Bacterial Biotransformation [9] | Bacterial Biotransformation [10] | Bacterial Biotransformation [11] | Bacterial Biotransformation [12] | Bacterial Biotransformation [13] | Bacterial Biotransformation [14] | Bacterial Biotransformation [15] | Bacterial Biotransformation [16] | Bacterial Biotransformation [17] | Bacterial Biotransformation [18] | Bacterial Biotransformation [19] | Bacterial Biotransformation [20] | also measured
1 | CCOc1nc2cccc(C(=O)O)c2n1Cc1ccc(-c2ccccc2-c2nnn[nH]2)cc1 | Compound metabolized | Compound NOT metabolized | Compound NOT metabolized | Compound NOT metabolized | Compound NOT metabolized | Compound NOT metabolized | Compound NOT metabolized | Compound NOT metabolized | Compound NOT metabolized | Compound NOT metabolized | Compound NOT metabolized | Compound NOT metabolized | Compound NOT metabolized | Compound NOT metabolized | Compound NOT metabolized | Compound NOT metabolized | Compound NOT metabolized | Compound NOT metabolized | Compound NOT metabolized | Compound NOT metabolized | Bacterial Biotransformation [21]: Compound NOT metabolized; Bacterial Biotransformation [22]: Compound NOT metabolized; Bacterial Biotransformation [23]: Compound NOT metabolized; Bacterial Biotransformation [24]: Compound NOT metabolized; Bacterial Biotransformation [25]: Compound NOT metabolized
2 | CCOC(=O)[C@H](CCc1ccccc1)N[C@@H](C)C(=O)N1[C@H](C(=O)O)C[C@@H]2CCC[C@@H]21 | Compound metabolized | Compound NOT metabolized | Compound NOT metabolized | Compound NOT metabolized | Compound NOT metabolized | Compound NOT metabolized | Compound NOT metabolized | Compound NOT metabolized | Compound NOT metabolized | Compound NOT metabolized | Compound NOT metabolized | Compound NOT metabolized | Compound NOT metabolized | Compound NOT metabolized | Compound NOT metabolized | Compound NOT metabolized | Compound NOT metabolized | Compound NOT metabolized | Compound NOT metabolized | Compound NOT metabolized | Bacterial Biotransformation [21]: Compound NOT metabolized; Bacterial Biotransformation [22]: Compound NOT metabolized; Bacterial Biotransformation [23]: Compound NOT metabolized; Bacterial Biotransformation [24]: Compound NOT metabolized; Bacterial Biotransformation [25]: Compound NOT metabolized
3 | C[C@@H](NCCCc1cccc(C(F)(F)F)c1)c1cccc2ccccc12 | Compound NOT metabolized | Compound NOT metabolized | Compound NOT metabolized | Compound NOT metabolized | Compound NOT metabolized | Compound NOT metabolized | Compound NOT metabolized | Compound NOT metabolized | Compound NOT metabolized | Compound NOT metabolized | Compound NOT metabolized | Compound NOT metabolized | Compound NOT metabolized | Compound NOT metabolized | Compound NOT metabolized | Compound NOT metabolized | Compound NOT metabolized | Compound NOT metabolized | Compound NOT metabolized | Compound NOT metabolized | Bacterial Biotransformation [21]: Compound metabolized; Bacterial Biotransformation [22]: Compound NOT metabolized; Bacterial Biotransformation [23]: Compound NOT metabolized; Bacterial Biotransformation [24]: Compound NOT metabolized; Bacterial Biotransformation [25]: Compound NOT metabolized
